# Experimental data as given in US10501748B2, “Methods and compositions for integration of an exogenous sequence within the genome of plants” (Dow AgroSciences LLC, priority 2013, dated 2019).
# System: protoplasts of SEC-derived cell suspension culture of cv. Bobwhite MPB26RH
# Experiment: basal tolerance to IMAZAMOX of protoplast agarose bead-type cultures (calli growth)
# Format: cell-based, Triticum aestivum
# Settings: 2 weeks
# Source text: IMAZAMOX® selection conditions are optimized using protoplasts derived from somatic embryogenic callus (SEC)-derived cell suspension culture of the wheat line cv. Bobwhite MPB26RH. While protoplasts derived from Bobwhite MPB26RH are non-totipotent (i.e., cannot be used to regenerate entire plants), the selection conditions established for enriching for events expressing the AHAS (653N) mutation are expected to be transferable to any protoplast-based transformation system based on a totipotent wheat genotype, which those in the art would recognize. The experiments conducted establish the basal tolerance of the wild-type donor wheat line cv. Bobwhite MPB26RH (S653/S653 genotype, which confers susceptibility to imidazolinones) to IMAZAMOX®. The use of IMAZAMOX® selection conditions stronger than basal tolerance will strongly enrich for transformed cells expressing the AHAS (S653N) mutation.
# Further transformation methods are applicable. For example a cell suspension culture for wheat line cv. Bobwhite MPB26RH can be established. Somatic embryogenic callus (SEC) is induced from immature zygotic embryos of wheat line cv. […]
# The basal tolerance of wheat line cv. Bobwhite MPB26RH to IMAZAMOX® is determined by incubating the agarose bead-type cultures in media supplemented with 0, 50, 100, 200, 400 and 600 nM IMAZAMOX® and assessing the rate of calli growth after 2 weeks.
smiles,measurement,value
COCc1cnc(C2=NC(C)(C(C)C)C(=O)N2)c(C(=O)O)c1 (stereo not shown) [IMAZAMOX],concentrations that impede calli development,higher than 200 nM
